# Test results: patent publication US9301951B2 (Ardelyx, Inc., priority 2010, dated 2016)
# How the values were obtained:
# [1] = human absorption; cited from earlier work
# [2] = Determination of compound Cmax and AUC in plasma after oral gavage; assay type: in vivo, rat; details: Sprague-Dawley rats, actual oral dose 3-15 mg/kg, 0.5-4 h
# Method: Sprague-Dawley rats were orally gavaged with test article at a nominal dose of 2.5 or 10 mg/kg and blood was collected at 0.5, 1, 2 and 4 h. Blood samples were processed to plasma using K2EDTA as an anticoaglulant. Plasma samples were treated with acetonitrile containing an internal standard, precipitated proteins removed by centrifugation. Supernatants were analyzed by LC-MS/MS and compound concentrations were determined by interpolation from a standard curve prepared in plasma. All compounds were orally dosed at the dosage shown, and pharmacokinetic parameters determined.
AUC [2] [ng·h/mL],Cmax [2] [ng/mL],Molecule,% FA [1] [%]
,,Cc1cc(=O)n(-c2ccccc2)n1C [phenazone],97
<30,<10,"(S)-2-(5-(diethylamino)-2-(3-(27-oxo-2,5,8,11,14,17,20,23,30,33,36,39-dodecaoxa-42-thia-26-azatritetracontan-43-yl)benzamido)phenyl)-N-(1,2,3,4-tetrahydronaphthalen-1-yl)isonicotinamide [Example 157.1]",
